Experimental data as given in patent publication US8765188B2, “Composition for treating and/or preventing osteoporosis” (Taipei Medical University, priority 2011, dated 2014).
Marks after values point to notes of the source that are not given here.

System: ovariectomized rat model of osteoporosis
Assay: Bone histomorphometry of tibia trabecular bone with micro-CT
Format: in vivo
Conditions: OVX rats, DVAB composition 0.2 g/kg, positive 0.1 mg/5 ml/kg ethinylestridiol, 20 weeks
Experimental: In an ovariectomized rat model of osteoporosis, rats were divided into sham (5 ml/kg ddH2O without ovariectomy) and ovariectomized (OVX) groups. The OVX rats were then subdivided into two groups orally treated with 5 ml/kg ddH2O (control group) and DVAB composition (0.2 g/kg) daily for 20 weeks. The positive group refers to rats receiving 0.1 mg/5 ml/kg of ethinylestridiol.
Biomechanical strength also was measured by three-point bending test of femur and compression test of vertebra. Furthermore, the tibia from rats was measured by cancellous bone histomorphometry with micro-CT. In this study, percentage of bone volume (BV/TV), trabecular thickness (Tb, Th), trabecular number (Tb, N), trabecular separation (Tb, Sp) and structure model index (SMI) were measured.

C#C[C@]1(O)CC[C@H]2[C@@H]3CCc4cc(O)ccc4[C@H]3CC[C@@]21C [Positive Control, ethinylestridiol]
BV/TV: 25.69 +/− 10.41* % | SMI: 1.29 +/− 0.52^# | Tb.N: 0.0028 +/− 0.0010* 1/μm | Tb.Sp: 255.99 +/− 94.24* μm | Tb.Th: 90.29 +/− 4.01 μm
